Results reported in patent US20240132525A1, “BORON […], CO[…], METHODS AND USES THEREOF” (priority 2022, published 2024).
Like-named read-outs stand apart in the source and are kept apart here.

Legend:
[1] = biological target: JAK1 (Homo sapiens (Human), UniProt P23458); assay: Biochemical kinase assay (33P-ATP filter-binding), JAK1
Description: (§1) Biochemical Kinase Assay Protocol (JAK)
(§2) Reaction Procedure: • 1. […] Detected kinase activity by filter-binding method.

[2] = biological target: JAK2 (Homo sapiens (Human), UniProt O60674); assay: Biochemical kinase assay (33P-ATP filter-binding), JAK2
Sequence of JAK2 (O60674 whole entry, species assumed): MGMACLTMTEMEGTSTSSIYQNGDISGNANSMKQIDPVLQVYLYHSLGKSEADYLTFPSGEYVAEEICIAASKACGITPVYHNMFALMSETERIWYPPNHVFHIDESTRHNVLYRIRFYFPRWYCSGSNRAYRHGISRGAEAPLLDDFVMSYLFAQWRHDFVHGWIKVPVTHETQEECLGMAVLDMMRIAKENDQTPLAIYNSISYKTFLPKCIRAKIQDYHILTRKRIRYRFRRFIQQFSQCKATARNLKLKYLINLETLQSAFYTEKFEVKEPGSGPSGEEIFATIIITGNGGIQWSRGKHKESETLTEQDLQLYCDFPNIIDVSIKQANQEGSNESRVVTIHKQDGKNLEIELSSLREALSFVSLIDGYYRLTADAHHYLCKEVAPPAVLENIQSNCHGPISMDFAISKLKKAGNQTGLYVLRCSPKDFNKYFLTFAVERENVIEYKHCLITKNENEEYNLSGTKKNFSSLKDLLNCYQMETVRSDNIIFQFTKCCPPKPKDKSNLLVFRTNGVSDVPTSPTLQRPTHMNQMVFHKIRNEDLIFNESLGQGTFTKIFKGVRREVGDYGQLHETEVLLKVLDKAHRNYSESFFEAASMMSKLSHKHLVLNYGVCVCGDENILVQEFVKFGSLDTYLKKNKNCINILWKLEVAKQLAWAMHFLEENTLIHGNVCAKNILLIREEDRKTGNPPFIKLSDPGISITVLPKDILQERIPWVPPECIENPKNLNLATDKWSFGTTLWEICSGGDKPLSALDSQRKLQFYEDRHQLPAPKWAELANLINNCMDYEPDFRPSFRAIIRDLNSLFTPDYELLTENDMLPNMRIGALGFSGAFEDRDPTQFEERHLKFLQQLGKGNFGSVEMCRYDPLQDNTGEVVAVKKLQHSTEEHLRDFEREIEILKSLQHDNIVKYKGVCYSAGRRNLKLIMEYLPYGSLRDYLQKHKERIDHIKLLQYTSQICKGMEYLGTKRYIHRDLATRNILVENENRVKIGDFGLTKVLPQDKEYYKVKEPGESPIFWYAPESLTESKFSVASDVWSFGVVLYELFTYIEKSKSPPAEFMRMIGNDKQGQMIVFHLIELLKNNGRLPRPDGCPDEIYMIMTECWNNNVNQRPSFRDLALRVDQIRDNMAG
Description: as §1, §2

[3] = biological target: PDE4B (Homo sapiens (Human), UniProt Q07343); assay: PDE4B inhibition; assay type: biochemical; conditions: Table 3a
Sequence of PDE4B (Q07343 whole entry, species assumed): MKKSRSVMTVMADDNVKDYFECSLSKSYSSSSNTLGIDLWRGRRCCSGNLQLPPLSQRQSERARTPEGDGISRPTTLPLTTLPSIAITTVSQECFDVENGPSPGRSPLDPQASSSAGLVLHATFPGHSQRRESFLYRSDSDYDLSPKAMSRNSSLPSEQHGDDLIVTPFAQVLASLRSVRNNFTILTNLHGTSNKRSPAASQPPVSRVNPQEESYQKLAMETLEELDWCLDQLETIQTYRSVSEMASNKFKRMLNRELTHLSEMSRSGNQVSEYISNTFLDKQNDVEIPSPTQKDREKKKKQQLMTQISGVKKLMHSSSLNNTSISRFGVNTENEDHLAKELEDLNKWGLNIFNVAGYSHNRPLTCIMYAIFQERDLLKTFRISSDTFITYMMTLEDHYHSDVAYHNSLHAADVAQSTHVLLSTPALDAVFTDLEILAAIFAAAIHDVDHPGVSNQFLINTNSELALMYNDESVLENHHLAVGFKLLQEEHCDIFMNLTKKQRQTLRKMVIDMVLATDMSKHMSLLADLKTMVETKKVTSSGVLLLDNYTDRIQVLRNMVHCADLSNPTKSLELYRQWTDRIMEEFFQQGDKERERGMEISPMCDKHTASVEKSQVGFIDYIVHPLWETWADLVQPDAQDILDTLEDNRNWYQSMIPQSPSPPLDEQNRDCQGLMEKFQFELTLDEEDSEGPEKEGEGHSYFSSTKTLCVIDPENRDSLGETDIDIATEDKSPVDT

[4] = system: IL-4/pSTAT6; assay: Cytokine function assay IL-4/pSTAT6 in PBMC; assay type: cell-based; conditions: PBMC, read-out: IC50 IL-4, Table 3a
Description: (§3) Cytokine Function Assay Protocols for IL-4/pSTAT6 and GM-CSF/pSTAT5
IL-4/pSTAT6: • PBMC from a healthy donor was plated onto a 96 w plate. Compound was added and incubated for 1 hour (at 37° C.). After 1 hour, cells were stimulated with IL-4 for 15 minutes. Cells were fixed and stained with anti-pSTAT6 antibody. After staining, cells were read on a Beckman-Coulter CytoFLEX.

[5] = system: GM-CSF/pSTAT5; assay: Cytokine function assay GM-CSF/pSTAT5 in lysed whole blood cells; assay type: cell-based; conditions: Whole blood cell, read-out: IC50 GM-CSF
Description: as §3
GM-CSF/pSTAT5: • Whole blood from a healthy donor was lysed to remove red blood cells. Cells were plated onto a 96 well plate. Compound was added and incubated for 1 hour (at 37° C.). After 1 hour, cells were stimulated with GM-CSF for 15 minutes. Cells were fixed and stained with anti-pSTAT5 antibody. After staining, cells were read on a Beckman-Coulter CytoFLEX.

[6] = system: IL-31; assay: Cytokine function assay for IL-31 in DH82 cells; assay type: cell-based, canine; conditions: Canis lupus familiaris
Description: Cytokine Function Assay Protocol for IL-31
The protocol for the cytokine function assay for IL-31 is set forth below: • 1. […] After 24 hr, wash with 37° C. pre-warmed PBS (100 uL/well). • 3. Add serum-free MEM, 90 uL per well, 2 hr, 37° C. • 4. Add 10 uL 10×IL-31 (40, 10, 2.5 ug/mL) in duplicate, 5 min, 37° C. • 5. Remove medium, add 60 uL lysis buffer per well. Agitate on a plate shaker (˜350 rpm) for 10 min at RT. • 6. […] Add 6 uL Acceptor Mix, cover with aluminum foil, quickly spin at 1000 rpm, shake at 120 rpm for 2 min, then incubate at RT for 1 hr. • 8. Add 6 uL Donor Mix, cover with aluminum foil, quickly spin at 1000 rpm, shake at 120 rpm for 2 min, then incubate at RT for 1 hr. • 9. Measure the fluorescence using EnVision™ plate reader.

[7] = Dog LM (liver microsome) assay; assay type: in vitro ADME; conditions: Table 3a; predicted clearance as percent of liver blood flow, 1 μM, 1 mg/ml microsomal protein
Summary of the method: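 Pooled Beagle liver microsomes (1 mg/ml protein), compound 1 μM, Tris pH 7.6 with 5 mM MgCl2, 37 °C, started with 1 mM NADPH; parent loss by LC-MS/MS over several time points.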

[8] = Pharmacokinetic profile after single oral administration in Beagle dogs; assay type: in vivo; conditions: male Beagle dogs, single oral dose about 1.0 mg/kg, fasted; for concentration at 48 h: read-out: Mean Clast
Description: Summary of Pharmacokinetic (PK) profile
Three healthy male Beagle dogs were studied to determine a representative pharmacokinetic (PK) profile following a single oral administration of 1.0 mg/kg to each dog in a fasted state. Blood samples were collected at pre-dose, 0.25, 0.5, 1, 2, 4, 8, 24; 32, and 48 h post dose following oral administration (1 mg/mL in 10% Propylene glycol (PG), 45% PEG400, 7% Cremophor EL, 38% 50 mM citrate buffer pH 3.0 suspension or clear solution).

[9] = system: recombinant canine IL-31 induced pruritic behaviors; assay: IL-31 induced itch behavior in Beagle dogs; assay type: in vivo; conditions: oral 1 mg/kg once daily for 5 days, IL-31 1.75 μg/kg i.v. on day 5
Description: Ten healthy adult male Beagle dogs with no previous history of pruritus or skin disease were selected. […] Afterward, all dogs received repeated administration of oral solution and again intravenously recombinant canine IL-31 injections to assess inhibition of IL-31 induced itch behavior. (See, e.g., Gonzales, Vet. Dermatol. 2016, 27, 34-e10 and Pearson, Vet. Sci. 2023, 10, 369)
An oral solution of a representative compound of the present disclosure, Example 33a, at 1 mg/kg once daily in the morning for five (5) days, was administered to each dog in a crossover design for the five (5) consecutive days. All dogs were fasted during the oral administration and thirty minutes (30 min) post oral drug administration. On day 5, all dogs were administered a recombinant canine IL-31 intravenously at the dose of 1.75 μg/kg.

[10] = DH82, Table 3a, read-out: IC50 IL-31

Sequence of JAK1 (P23458 whole entry, species assumed): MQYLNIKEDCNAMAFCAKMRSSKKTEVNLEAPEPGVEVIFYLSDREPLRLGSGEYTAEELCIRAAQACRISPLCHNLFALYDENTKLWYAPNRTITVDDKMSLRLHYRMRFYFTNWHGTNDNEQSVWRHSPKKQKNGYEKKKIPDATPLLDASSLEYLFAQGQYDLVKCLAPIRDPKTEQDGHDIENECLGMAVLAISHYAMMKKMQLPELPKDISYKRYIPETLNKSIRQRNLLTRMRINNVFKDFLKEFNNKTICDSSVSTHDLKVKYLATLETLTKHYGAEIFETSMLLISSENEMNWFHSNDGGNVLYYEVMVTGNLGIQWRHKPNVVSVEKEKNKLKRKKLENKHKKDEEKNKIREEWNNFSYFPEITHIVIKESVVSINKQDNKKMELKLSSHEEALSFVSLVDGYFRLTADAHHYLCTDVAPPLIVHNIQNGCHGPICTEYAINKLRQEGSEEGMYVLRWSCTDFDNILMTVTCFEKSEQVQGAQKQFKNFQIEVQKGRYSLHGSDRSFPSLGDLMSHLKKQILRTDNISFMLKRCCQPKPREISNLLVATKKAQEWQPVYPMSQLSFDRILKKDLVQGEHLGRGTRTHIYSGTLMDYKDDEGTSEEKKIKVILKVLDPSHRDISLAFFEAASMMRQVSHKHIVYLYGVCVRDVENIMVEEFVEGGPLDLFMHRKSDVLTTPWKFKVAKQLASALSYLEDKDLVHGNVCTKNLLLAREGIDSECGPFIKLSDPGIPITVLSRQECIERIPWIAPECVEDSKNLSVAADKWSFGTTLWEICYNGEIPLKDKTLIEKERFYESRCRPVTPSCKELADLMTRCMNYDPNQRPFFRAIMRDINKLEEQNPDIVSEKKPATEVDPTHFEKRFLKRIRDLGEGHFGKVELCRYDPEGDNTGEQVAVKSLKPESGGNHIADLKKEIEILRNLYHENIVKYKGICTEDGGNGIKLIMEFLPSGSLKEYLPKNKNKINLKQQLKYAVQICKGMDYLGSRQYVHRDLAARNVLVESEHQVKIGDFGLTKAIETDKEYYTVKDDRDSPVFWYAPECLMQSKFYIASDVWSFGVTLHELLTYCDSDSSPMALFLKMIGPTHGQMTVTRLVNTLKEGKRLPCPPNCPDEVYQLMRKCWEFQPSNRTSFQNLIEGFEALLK

Compound	IC50 ([1]; Table 3a, read-out: IC50 JAK1)	IC50 ([2]; Table 3a, read-out: IC50 JAK2)	IC50 [3]	IC50 [4]	IC50 [5]	IC50 [6, 10]	Dog LM QH [7]	IC50 ([6]; DH82, read-out: IC50 IL-31)	IC50 ([1]; IC50 JAK1, Table 3a)	IC50 ([2]; IC50 JAK2, Table 3a)	concentration at 48 h ([8]; dog, in vivo)	Median Tlast [8]	Cmax ([8]; dog, in vivo)	AUC(0-inf) ([8]; dog, in vivo, read-out: Mean AUCINF_obs)	AUC(0-t) ([8]; dog, in vivo, read-out: Mean AUClast)	half-life ([8]; dog, in vivo, read-out: Mean T1/2 (converted))	Tmax ([8]; dog, in vivo, read-out: Median Tmax)	anti-pruritic effect compared to IL-31 baseline/alone [9]
Cc1cnc(Nc2cc(F)c3c(c2)COB3O)nc1NC1COCCC1C#N (racemic) [Example 029, (trans)-3-((2-((7-fluoro-1-hydroxy-1,3-dihydrobenzo[c][1,2]oxaborol-5-yl)amino)-5-methylpyrimidin-4-yl)amino)tetrahydro-2H-pyran-4-carbonitrile]	0.2 nM	9.8 nM	978 nM	58.3 nM	2240 nM	49.5 nM	<19.9%	–	–	–	–	–	–	–	–	–	–	–
Cc1cnc(Nc2cc(C)c3c(c2)COB3O)nc1N[C@@H]1CCC[C@H]1C#N (relative stereo) [Example 002, (trans)-2-((2-((1-hydroxy-7-methyl-1,3-dihydrobenzo[c][1,2]oxaborol-5-yl)amino)-5-methylpyrimidin-4-yl)amino)cyclopentane-1-carbonitrile]	0.9 nM	12.1 nM	832 nM	94.8 nM	2100 nM	23.9 nM	<19.9%	–	–	–	–	–	–	–	–	–	–	–
Cc1cnc(Nc2ccc3c(c2)C(C)(C)OB3O)nc1N[C@@H]1COCC[C@H]1C#N (relative stereo) [Example 032, (trans)-3-[[2-[(1-hydroxy-3,3-dimethyl-2,1-benzoxaborol-5-yl)amino]-5-methyl-pyrimidin-4-yl]amino]tetrahydropyran-4-carbonitrile]	0.6 nM	3.3 nM	762 nM	66.7 nM	901 nM	–	42.0%	51 nM	–	–	–	–	–	–	–	–	–	–
Cc1cnc(Nc2ccc3c(c2)COB3O)nc1N[C@@H]1COCC[C@H]1C#N (single isomer, unassigned) [Example 026a, (trans)-3-((2-((1-hydroxy-1,3-dihydrobenzo[c][1,2]oxaborol-5-yl)amino)-5-methylpyrimidin-4-yl)amino)tetrahydro-2H-pyran-4-carbonitrile]	–	–	972 nM	49.7 nM	4240 nM	21.6 nM	<19.9%	–	0.4 nM	1.6 nM	–	–	–	–	–	–	–	–
Cc1cnc(Nc2cc(F)c3c(c2)COB3O)nc1N[C@@H]1COCC[C@H]1C#N (single isomer, unassigned) [Example 029a, (trans)-3-[[2-[(7-fluoro-1-hydroxy-3H-2,1-benzoxaborol-5-yl)amino]-5-methyl-pyrimidin-4-yl]amino]tetrahydropyran-4-carbonitrile]	0.02 nM	3.7 nM	381 nM	48.8 nM	1170 nM	19.8 nM	<19.9%	–	–	–	–	–	–	–	–	–	–	–
Cc1cnc(Nc2cc(Cl)c3c(c2)COB3O)nc1N[C@@H]1COCC[C@H]1C#N (single isomer, unassigned) [Example 031b, (trans)-3-((2-((7-chloro-1-hydroxy-1,3-dihydrobenzo[c][1,2]oxaborol-5-yl)amino)-5-methylpyrimidin-4-yl)amino)tetrahydro-2H-pyran-4-carbonitrile]	–	–	–	–	–	–	<19.9%	–	–	–	7.98 ng/mL	48 h	–	–	–	–	–	–
Cc1cnc(Nc2cc3c(c(C(F)(F)F)c2)B(O)OC3)nc1N[C@@H]1COCC[C@H]1C#N (single isomer, unassigned) [Example 033a, (trans)-3-[[2-[[1-hydroxy-7-(trifluoromethyl)-3H-2,1-benzoxaborol-5-yl]amino]-5-methyl-pyrimidin-4-yl]amino]tetrahydropyran-4-carbonitrile]	0.4 nM	8.1 nM	–	136 nM	1700 nM	19.1 nM	<19.9%	–	–	–	4.74 ng/mL	48 h	279 ng/mL	2560 ng·h/mL	2460 ng·h/mL	14.6 h	1 h	significant anti-pruritic effect
Cc1cnc(Nc2cc3c(c(C(F)(F)F)c2)B(O)OC3)nc1N[C@H]1COC[C@@H]1C#N (single isomer, unassigned) [Example 043a, (trans)-4-[[2-[[1-hydroxy-7-(trifluoromethyl)-3H-2,1-benzoxaborol-5-yl]amino]-5-methyl-pyrimidin-4-yl]amino]tetrahydrofuran-3-carbonitrile]	0.9 nM	23.7 nM	–	267 nM	4140 nM	45.4 nM	<19.9%	–	–	–	–	–	–	–	–	–	–	–
Cc1cnc(Nc2cc(Cl)c3c(c2)COB3O)nc1N[C@H]1CCCOC1 [Example 030b, (S)-7-chloro-5-((5-methyl-4-((tetrahydro-2H-pyran-3-yl)amino)pyrimidin-2-yl)amino)benzo[c][1,2]oxaborol-1(3H)-ol]	4.7 nM	91.9 nM	–	193 nM	4480 nM	–	<19.9%	25.8 nM	–	–	–	–	–	–	–	–	–	–
N#CC1CCOCC1Nc1nc(Nc2cc(F)c3c(c2)COB3O)ncc1Cl (centres unmarked) [Example 050, 3-((5-chloro-2-((7-fluoro-1-hydroxy-1,3-dihydrobenzo[c][1,2]oxaborol-5-yl)amino)pyrimidin-4-yl)amino)tetrahydro-2H-pyran-4-carbonitrile]	0.2 nM	1.2 nM	832 nM	94.8 nM	2100 nM	23.9 nM	<19.9%	–	–	–	–	–	–	–	–	–	–	–
